The values below come from ChEMBL document CHEMBL1201862, “PubChem BioAssay data set” (2004).

The structures appear in SMILES notation.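 These data come from cells grown in 96-well plates and exposed to compound for 48 hours at five concentrations. GI50 is the concentration that inhibits growth by half.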 Active and inactive are the calls of the source. Rule as the data show it: active = GI50 up to about 1.1 µM and inactive = higher.

Test in all cases: DTP human tumour cell line panel, 48 h
In assay [1] the test system is UACC-257.
For assay [2], the system named is SR.
Assay [3] concerns SNB-75.
Assay [4] deals with ACHN.
Assay [5] concerns U-251.
Assay [6] relates to OVCAR-4.
Assay [7] concerns Malme-3M.
The test system of assay [8] is LOX IMVI.
The test system of assay [9] is HCT-15.
For assay [10], the system named is SK-MEL-2.
Assay [11] relates to NCI-H226.
The subject of assay [12] is OVCAR-3.
The subject of assay [13] is SW-620.
The test system of assay [14] is PC-3.
In assay [15] the test system is MCF7.
For assay [16], the system named is T47D.
Assay [17] has as its system MDA-N.
Assay [18] relates to Hs-578T.
For assay [19], the system named is HCT-116.

For orientation: GI50 means the concentration that inhibits growth by half. In the case of `CCOc1ccc(OCC(=O)O)c2c1CCCC2=O`, the GI50 in assay [1], in assay [2], in assay [3], in assay [4], in assay [5] and in assay [6] was > 100 µM (inactive) throughout. Moreover, the GI50 was > 100 µM (inactive) in assay [7]; > 100 µM (inactive) in assay [8]; above 100 µM in [9]; > 100 µM (inactive) in assay [10]; > 100 µM (inactive) in assay [11]; > 100 µM (inactive) in [12]. Also, the GI50 in [13] is > 100 µM (inactive).

With `Clc1cccc(-c2sc(-c3ccsc3)cc2Cc2ccsc2)c1`, the GI50 in assay [1], in assay [2], in [3], in assay [14], in assay [6] and in [15] was > 10 µM (inactive) each time. Further, the GI50 in [7] was > 10 µM (inactive); in assay [8], > 10 µM (inactive); in assay [9] it was above 10 µM; in assay [16] it was 8 µM (inactive); in [17], > 10 µM (inactive); in [13], > 10 µM (inactive).

For the molecule `O=C1CC(c2cccc(Br)c2)n2cccc21` (stereo not given), the GI50 in assay [1] was > 100 µM (inactive); in assay [18], 28.2 µM (inactive); in assay [2], 51.2 µM (inactive); in assay [3] it was 35.3 µM (inactive); in assay [19], > 100 µM (inactive); in assay [14], 39.5 µM (inactive). Besides, the GI50 was 68.5 µM (inactive) in assay [4]; > 100 µM (inactive) in assay [5]; 88.9 µM (inactive) in [6]; 86.9 µM (inactive) in assay [15]; > 100 µM (inactive) in assay [8]; 92.9 µM in [9]. Moreover, the GI50 was 63.4 µM (inactive) in [16]; 29 µM (inactive) in assay [10]; 92.9 µM (inactive) in assay [11]; > 100 µM (inactive) in [12]; > 100 µM (inactive) in [13].

Regarding `CCN(CCC#N)C(=O)Nc1ccccc1`, the GI50 in assay [1] is > 100 µM (inactive); in assay [3] it was 93.1 µM (inactive); in [19] it was > 100 µM (inactive); in [14], > 100 µM (inactive); in [4], > 100 µM (inactive); in [5], > 100 µM (inactive). Further, the GI50 in [6] is > 100 µM (inactive); in assay [15] it was > 100 µM (inactive); in assay [7], 62.7 µM (inactive); in assay [8], > 100 µM (inactive); in assay [9], above 100 µM; in [16], > 100 µM (inactive). In addition, the GI50 in assay [10], in [11], in [12], in assay [17] and in assay [13] was > 100 µM (inactive) each time.

Take `CC(=O)OCC1OC(n2c(C)c(C)c(C)c(C#N)c2=S)C(OC(C)=O)C(OC(C)=O)C1OC(C)=O` (stereo not given): the GI50 was > 100 µM (inactive) in [1]; > 100 µM (inactive) in assay [2]; 80 µM (inactive) in assay [3]; 28.6 µM (inactive) in assay [19]; > 100 µM (inactive) in [14]; 48.5 µM (inactive) in assay [4]. In addition, the GI50 is 27.6 µM (inactive) in [5]; > 100 µM (inactive) in assay [6]; > 100 µM (inactive) in assay [15]; > 100 µM (inactive) in assay [7]; > 100 µM (inactive) in assay [8]; above 100 µM in assay [9]. For the same molecule, the GI50 is > 100 µM (inactive) in [16]; 31.9 µM (inactive) in [10]; > 100 µM (inactive) in assay [11]; > 100 µM (inactive) in assay [12]; > 100 µM (inactive) in [17]; > 100 µM (inactive) in assay [13].

On to `O=C1c2cc(I)ccc2N2CCN=C2N1Cc1ccccc1`, for which the GI50 in assay [1] was > 100 µM (inactive); in [18] it was 72.1 µM (inactive); in [2] it was 84.5 µM (inactive); in [3], 19.7 µM (inactive); in assay [19] it was > 100 µM (inactive); in assay [14], > 100 µM (inactive). In addition, the GI50 was 51.2 µM (inactive) in [4]; 49.5 µM (inactive) in [5]; > 100 µM (inactive) in assay [6]; > 100 µM (inactive) in assay [15]; > 100 µM (inactive) in assay [7]; > 100 µM (inactive) in assay [8]. The GI50 in [9] was above 100 µM; in [16], 58.7 µM (inactive); in assay [10], > 100 µM (inactive); in assay [11], > 100 µM (inactive); in [12], > 100 µM (inactive); in assay [13], > 100 µM (inactive).

Turning to `Oc1ccc(/N=C/c2ccc(/C=N/c3ccc(O)cc3)cc2)cc1`, the GI50 in assay [1] is 16.8 µM (inactive); in assay [18], 23.6 µM (inactive); in assay [2] it was 6.44 µM (inactive); in assay [3], 16.7 µM (inactive); in assay [19], 14.8 µM (inactive); in assay [14] it was 16.3 µM (inactive). For the same molecule, the GI50 in assay [4] was 13.1 µM (inactive); in assay [5] it was 14.5 µM (inactive); in assay [6], 14.5 µM (inactive); in assay [15], 22.9 µM (inactive); in assay [7], 18 µM (inactive); in [8], 16.1 µM (inactive). Moreover, the GI50 in assay [9] was 15 µM; in [16], 25.7 µM (inactive); in assay [10], 21.2 µM (inactive); in assay [11] it was 14.6 µM (inactive); in assay [12] it was 16.3 µM (inactive); in assay [13] it was 17.5 µM (inactive).

As to `COC(=O)c1c(-c2ccc(Cl)cc2)cc2c3ccccc3n(C)c2c1C(=O)OC`, the GI50 in assay [1] is 64.7 µM (inactive); in assay [18], > 100 µM (inactive); in assay [19], > 100 µM (inactive); in [14], > 100 µM (inactive); in [4], > 100 µM (inactive); in [5] it was > 100 µM (inactive). The GI50 was > 100 µM (inactive) in assay [6]; 38.3 µM (inactive) in [15]; > 100 µM (inactive) in assay [7]; > 100 µM (inactive) in [8]; above 100 µM in assay [9]; > 100 µM (inactive) in assay [10]. The GI50 in [11], in assay [12], in assay [17] and in assay [13] was > 100 µM (inactive) each time.

On to `OCCNC1=Nc2ccc(Cl)cc2C(=S)N2CSC[C@@H]12`, for which the GI50 in assay [2], in assay [19], in [14], in assay [4], in [5] and in assay [6] was > 100 µM (inactive) each time. In addition, the GI50 in assay [15] is > 100 µM (inactive); in [7], > 100 µM (inactive); in assay [9], above 100 µM; in [16], > 100 µM (inactive); in [10] it was > 100 µM (inactive); in [12] it was > 100 µM (inactive). In assay [13], the GI50 is > 100 µM (inactive).

Regarding `Cc1nc(=O)[nH]c2c1C(=O)N(C(C)C)C(NC(C)C)S2` (stereo not given), the GI50 in [1] is > 100 µM (inactive); in assay [3], > 100 µM (inactive); in assay [19], > 100 µM (inactive); in assay [14] it was 41.2 µM (inactive); in assay [4] it was > 100 µM (inactive); in [5], > 100 µM (inactive). Further, the GI50 is 57.9 µM (inactive) in assay [6]; > 100 µM (inactive) in [15]; 57.7 µM (inactive) in assay [7]; 83.6 µM (inactive) in assay [8]; 93.8 µM in assay [9]; 90.2 µM (inactive) in assay [16]. The GI50 in [10] was > 100 µM (inactive); in [11], > 100 µM (inactive); in [12], 26.9 µM (inactive); in assay [17], > 100 µM (inactive); in assay [13], > 100 µM (inactive).

As to `COc1cc(N2C(=O)C(=O)C3(CCCCC3)C2=O)cc(OC)c1OC`, the GI50 in assay [1], in assay [2], in assay [3], in [19], in assay [14] and in [4] was > 100 µM (inactive) throughout. Also, the GI50 in assay [5] is > 100 µM (inactive); in assay [6], > 100 µM (inactive); in assay [15], > 100 µM (inactive); in assay [7], > 100 µM (inactive); in assay [8], > 100 µM (inactive); in assay [9], above 100 µM. The GI50 in assay [16], in assay [10], in assay [11], in [12], in assay [17] and in assay [13] was > 100 µM (inactive) in each case.

On to `Cc1cccc2c1Oc1cc(Cl)ccc1C2NC(=O)CCN1CCOCC1` (stereo not given), for which the GI50 in [1] was > 100 µM (inactive); in [2] it was > 100 µM (inactive); in [3] it was 21.8 µM (inactive); in assay [19] it was > 100 µM (inactive); in assay [14], > 100 µM (inactive); in assay [5], > 100 µM (inactive). For the same molecule, the GI50 is > 100 µM (inactive) in assay [6]; > 100 µM (inactive) in assay [15]; > 100 µM (inactive) in assay [8]; above 100 µM in [9]; > 100 µM (inactive) in assay [16]; > 100 µM (inactive) in [12]. Besides, the GI50 in assay [17] and in assay [13] was > 100 µM (inactive) in each case.

Consider `O=C(O)c1ccccc1C(=O)Nn1cnnc1`, for which the GI50 in assay [1], in assay [3], in assay [19], in assay [14], in assay [4] and in assay [5] was > 100 µM (inactive) in each case. The GI50 in assay [6] is > 100 µM (inactive); in assay [15] it was > 100 µM (inactive); in assay [8] it was > 100 µM (inactive); in assay [9], above 100 µM; in [10], > 100 µM (inactive); in [12], > 100 µM (inactive). The GI50 in assay [17] and in [13] was > 100 µM (inactive) each time.
